One may read the IC50 as the concentration that gives 50% inhibition.

Structures are written as SMILES. Some results are limits rather than exact numbers.

Here are results for one compound from paper PMC11433764, “A Novel Compound from the Phenylsulfonylpiperazine Class: Evaluation of In Vitro Activity on Luminal Breast Cancer Cells” (Molecules, 2024).

In assay [1] the test system is MCF7. The assay is described as follows: MTT cell viability, MCF7. Particulars: Homo sapiens, MCF7; 48 h, MTT, 1.25–160 μM; read-out: IC50 MCF7. The assay is classed as cell-based. How it is done: (§1) Four different breast cells lines were used in this study: MCF-10A (non-tumorigenic), MCF7 (ER+ BC), MDA-MB453 (HER2+ BC) and MDA-MB231 (TNBC). All lineages were obtained from the American Type Culture Collection (ATCC; Manassas, VA, USA) and maintained at a temperature of 37 °C according to the supplier’s recommendations. Only MDA-MB231 cells were not kept in an atmosphere of 5% CO2. MCF-10A was grown in Dulbecco’s Modified Eagle’s Medium (DMEM F12, Gibco, ThermoFisher Scientific, Waltham, MA, USA) supplemented with 20 ng/mL epidermal growth factor (Gibco, ThermoFisher Scientific, Waltham, MA, USA), 0.5 μg/mL hydrocortisone (Sigma-Aldrich, Sigma-Aldrich, St. Louis, MO, USA) and 10 μg/mL insulin (Gibco, ThermoFisher Scientific, Waltham, MA, USA). MCF7 was cultivated in Roswell Park Memorial Institute Medium (RPMI-1640, Gibco, ThermoFisher Scientific, Waltham, MA, USA), MDA-MB453 in IMDM and MDA-MB231 in Leibovitz’s medium (L-15, Gibco, ThermoFisher Scientific, Waltham, MA, USA). All media were supplemented with 10% fetal bovine serum (FBS, Gibco, ThermoFisher Scientific, Waltham, MA, USA) and 50 µg/mL of gentamicin (Cultilab, Campinas, SP, Brazil). The cells were confirmed to be free of mycoplasma and passaged using a 0.25% trypsin-EDTA solution when confluency reached 80–90%.
(§2) Cell viability was determined by spectrophotometric quantification of MTT (3-[4,5-dimethyl-thiazol-2-yl]-2,5-diphenyltetrazolium bromide—Invitrogen. Waltham, MA, USA) reduction to formazan crystals. Cells were seeded at the density of 1 × 10^4 cells/well (MCF-10A, MDA-MB453), 1.5 × 10^4 cells/well (MDA-MB231) and 3 × 10^3 cells/well (MCF7) in 96-well culture dishes and incubated with different concentrations of the compounds (1.25, 2.5, 5, 10, 20, 40, 80 and 160 µM) for 48 h. The medium was than replaced by MTT solution (0.5 mg/mL) and plates were kept at 37 °C for 4 h. After the aspiration of the media, the formazan crystals were diluted with 100 μL of dimethyl-sulfoxide (DMSO)/well and the absorbance at 570 nm was measured using a spectrophotometer (Thermo Plate TP-Reader, Waltham, MA, USA). Cytotoxicity was calculated using the following formula: Cytotoxicity (%) = [absorbance of cells treated with the compounds/absorbance of cells treated with DMSO) × 100]. The IC50 was determined for each compound and was defined as the concentration required to inhibit 50% of cell growth, compared to the control sample (cells treated with DMSO 0.05%).
(§3) Data were presented as the mean ± standard deviation (SD) and analyzed using GraphPad Prism 9.0 software (GraphPad Software Inc., La Jolla, CA, USA). All data were assayed in triplicate. Statistical analysis was performed using one-way ANOVA, Tukey´s HSD post hoc test and Student’s t-test. The IC50 was calculated using non-linear regression and the selectivity index (SI) was calculated by the ratio between the IC50 values corresponding to the non-tumor cell lineage (MCF-10A) and the IC50 values corresponding to the BC cell lines. Statistical significance was accepted at p values < 0.05.

Assay [2] in a line: ABTS radical scavenging assay. Particulars: 40 µM (greatest activity among 10, 20, 40, 80 and 160 µM). How it is done:
The ABTS^+ radical cation scavenging efficacy for compound 3 was determined according to the method described earlier with some modifications. Briefly, an equal amount of 7 mM ABTS^+ (2,20-azino-bis(3-ethylbenzothiazoline-6-sulfonic acid)) stock solution was mixed and kept in the dark at room temperature for 12 h with a 140 mM potassium persulfate stock solution. The ABTS^+ was then diluted in ethanol until it reached a UV absorption value of 0.700 (±0.200) at 734 nm. Compound 3 (10, 20, 40, 80 and 160 µM) was mixed with ABTS^+ in 96-well plates, and absorbance was read at 415 nm using a microplate reader (Thermo Plate TP-Reader, ThermoFisher Scientific, Waltham, MA, USA). The scavenging capability of ABTS^+ radical was expressed as Trolox (0.1 to 2 mM) equivalents.

Assay [3] has as its system ENTPD3. The assay is described as follows: qPCR, ENTPD3 expression in MCF7. The class given is cell-based. The settings on record: vs untreated cells. How it is done: Total RNA was extracted using Trizol reagent (Invitrogen), according to the manufacturer’s protocol. The quality of extracted RNA was verified by the spectrophotometric readings at 260 and 280 nm (Nanodrop 1000-ThermoFisher), and the first strand of cDNA was synthesized from 1 µg of total RNA via reverse transcription using GoScript™ Reverse Transcription Mix (Promega, Madison, WI, EUA). qPCR analysis was performed using 5.0 μL of Power SYBR Green PCR Master Mix (Applied Biosystems, Carlsbad, CA, USA) and run on a StepOnePlus Systems (Applied Biosystems, Carlsbad, CA, USA) device with the following cycling parameters: 40 cycles of 95 °C for 10 s and 60 °C for 30 s. The comparative Cq was used to find the relative expression of CDH1 (E-caderina), ENTPD1 (ectonucleoside triphosphate diphosphohydrolase 1), ENTPD2 (ectonucleoside triphosphate diphosphohydrolase 2), ENTPD3 (ectonucleoside triphosphate diphosphohydrolase 3), ENTPD5 ([…]) and KRT10 (keratin 10) genes, after relative standard curve optimization. β-2-microglobulin (β2M) was used as a reference gene. The primer sequences are described in Table 3.

The subject of assay [4] is tumor cells MCF7, MDA-MB-453 and MDA-MB-231. The assay is described as follows: MTT cell viability, tumor cells (stated collectively). The assay is classed as cell-based. The settings on record: 48 h, MTT; tumor cells stated collectively. As for the experimental part:
as §1, §2, §3

Assay [5] concerns MCF7. In words: Wound-healing migration assay. The assay is classed as cell-based. How it is done:
Wound-healing analysis was applied to test cell migration ability. MCF7 cells were seeded in a 6-well plate at a density of 1 × 10^6 cells/well and, after confluence, a “wound” in the monolayer was introduced by a sterilized 200 μL pipet tip. Cells were washed with PBS and treated with compound 3 (1.125, 2.25 and 4.5 µM) for 24 or 48 h in a serum-free medium. Cells were photographed at 0 h, 24 or 48 h under a light microscope (Evos®, ThermoFisher Scientific, Waltham, MA, USA) at 10× objective using the same randomly chosen fields. The cell-free area was measured by ImageJ v. 1.54 g software and migration in the control well was considered to be 100%.

Regarding `O=C(c1ccc(-n2cnnn2)cc1)N1CCN(S(=O)(=O)c2ccc(Cl)cc2)CC1` [Compound 3, (4-(1H-tetrazol-1-yl)phenyl)(4-((4-chlorophenyl)sulfonyl)piperazin-1-yl)methanone], the half-inhibitory concentration (IC50) in assay [1] is 4.48 µM; in assay [4], under 50 µM. In assay [2], the “ABTS inhibition of free radicals” value stood at 40%. The “Fold Change ENTPD3 mRNA” value in assay [3] (MCF7, 1.125 µM) was 1.641; in assay [3] (MCF7, 2.25 µM), 1.074; in assay [3] (MCF7, 4.5 µM), 1.229. Moreover, the “Migration of MCF7 cells” value was “significantly inhibited” in assay [5] (1.13, 2.25 and 4.50 µM, 48 h); “significantly inhibited” in assay [5] (2.25 and 4.50 µM, 24 h).
